The text below walks through data of patent US20240025907A1, “QUINAZOLINE PAN-KRas INHIBITORS” (Mirati Therapeutics, Inc., priority 2022, published 2024).

Like-named read-outs stand apart in the source and are kept apart here.

Assay type in all cases: cell-based
For assay [1], the system named is KRas-mediated Phosphorylation of ERK in PSN1 cells. The assay is described as follows: Cisbio HTRF pERK assay, PSN1 cells. To be noted: 3 hour compound, read-out: Inhibition (HTRF IC50 nM) of KRas-mediated Phosphorylation of ERK, PSN1. Here is the method:
Inhibition of KRas Phosphorylation of ERK (HTRF) by Exemplary Compounds of Formula (I) • Cisbio HTRF Advanced pERK Assay Catalog #64AERPEH • Cell: MKN1, PSN1 • Procedure: • Day 1: Seed 6,000 cells/well −25 μl/well in 384-well white solid bottom plate; RPM1_10% FBS.

The test system of assay [2] is KRas-mediated Phosphorylation of ERK in A549 cells. In words: Cisbio HTRF pERK assay, A549 cells. To be noted: A549 cells, 3 hrs compound, read-out: Inhibition (HTRF IC50 nM) of KRas-mediated Phosphorylation of ERK, A549. For orientation: TR-FRET usually uses a lanthanide donor and a delayed reading to cut background.
Assay [3] concerns KRas-mediated Phosphorylation of ERK in AsPC-1 cells. The assay is described as follows: Cisbio HTRF pERK assay, AsPC-1 cells. To be noted: 3 hrs compound, read-out: Inhibition (HTRF IC50 nM) of KRas-mediated Phosphorylation of ERK, AsPC-1.
The subject of assay [4] is KRas-mediated Phosphorylation of ERK in HCT116 cells. In words: Cisbio HTRF pERK assay, HCT116 cells. To be noted: HCT116 cells, 3 hrs compound, read-out: Inhibition (HTRF IC50 nM) of KRas-mediated Phosphorylation of ERK, HCT116.
Assay [5] concerns KRas-mediated Phosphorylation of ERK in H727 cells. In words: Cisbio HTRF pERK assay, H727 cells. Particulars: 3 hrs compound, read-out: Inhibition (HTRF IC50 nM) of KRas-mediated Phosphorylation of ERK, H727.
For assay [6], the system named is KRas-mediated Phosphorylation of ERK in H358 cells. In words: Cisbio HTRF pERK assay, H358 cells. To be noted: H358 cells, 3 hrs compound, read-out: Inhibition (HTRF IC50 nM) of KRas-mediated Phosphorylation of ERK, H358.
The test system of assay [7] is KRas-mediated Phosphorylation of ERK in H460 cells. The assay is described as follows: Cisbio HTRF pERK assay, H460 cells. Particulars: H460 cells, 3 hrs compound, read-out: Inhibition (HTRF IC50 nM) of KRas-mediated Phosphorylation of ERK, H460.

With `C=C1CN2CCC[C@@]2(COc2nc(N3CC4CCC(C3)N4)c3cc(Cl)c(-c4ccc(F)c5sc(N)c(C#N)c45)c(F)c3n2)C1` [Example 183, (S)-4-(4-((1R,5S)-3,8-diazabicyclo[3.2.1]octan-3-yl)-6-chloro-8-fluoro-2-(((S)-2-methylenetetrahydro-1H-pyrrolizin-7a(5H)-yl)methoxy)quinazolin-7-yl)-2-amino-7-fluorobenzo[b]thiophene-3-carbonitrile], the IC50 was 6150 nM in assay [1]; greater than 10000 nM in assay [2]; 254 nM in assay [3]; 4800 nM in assay [4]; greater than 10000 nM in assay [5]; 6740 nM in assay [6]. In assay [7], the IC50 was found to be 8090 nM.
Regarding `N#Cc1c(N)sc2c(F)ccc(-c3c(Cl)cc4c(N5C=C(CCO)CCCC5)nc(OC[C@@]56CCCN5C[C@H](F)C6)nc4c3F)c12` [Example 190, 2-amino-4-(6-chloro-8-fluoro-2-(((2R,7aS)-2-fluorotetrahydro-1H-pyrrolizin-7a(5H)-yl)methoxy)-4-(6-(2-hydroxyethyl)-2,3,4,5-tetrahydro-1H-azepin-1-yl)quinazolin-7-yl)-7-fluorobenzo[b]thiophene-3-carbonitrile], the IC50 in assay [1] (Homo sapiens, PSN1, 3 h) was 5570 nM; in assay [2] (Homo sapiens, A549, 3 h) it was 525 nM; in assay [3] (Homo sapiens, ASPC1, 3 h), 627 nM; in assay [4] (Homo sapiens, HCT-116, 3 h), 596 nM; in assay [5] (Homo sapiens, NCI-H727, 3 h) it was 870 nM; in assay [6] (Homo sapiens, NCI-H358, 3 h), 330 nM. In addition, the half-maximal inhibitory concentration (IC50) in assay [7] (Homo sapiens, NCI-H460, 3 h) is 347 nM.
Regarding `N#Cc1c(N)sc2c(F)ccc(-c3c(Cl)cc4c(NCc5cn[nH]c5)nc(OC[C@@]56CCCN5C[C@H](F)C6)nc4c3F)c12` [Example 199, 4-(4-(((1H-pyrazol-4-yl)methyl)amino)-6-chloro-8-fluoro-2-(((2R,7aS)-2-fluorotetrahydro-1H-pyrrolizin-7a(5H)-yl)methoxy)quinazolin-7-yl)-2-amino-7-fluorobenzo[b]thiophene-3-carbonitrile], the half-inhibitory concentration (IC50) in assay [1] (Homo sapiens, PSN1, 3 h) came out at 3860 nM; in assay [2] (Homo sapiens, A549, 3 h), 1180 nM; in assay [3] (Homo sapiens, ASPC1, 3 h), 4200 nM; in assay [4] (Homo sapiens, HCT-116, 3 h) it was 889 nM; in assay [5] (Homo sapiens, NCI-H727, 3 h) it was 4090 nM; in assay [6] (Homo sapiens, NCI-H358, 3 h), 232 nM. In assay [7] (Homo sapiens, NCI-H460, 3 h), the IC50 was determined as 462 nM.
Take `CN(c1nc(OC[C@@]23CCCN2C[C@H](F)C3)nc2c(F)c(-c3ccc(F)c4sc(N)c(C#N)c34)c(Cl)cc12)C1CC1` [Example 203, 2-amino-4-(6-chloro-4-(cyclopropyl(methyl)amino)-8-fluoro-2-(((2R,7aS)-2-fluorotetrahydro-1H-pyrrolizin-7a(5H)-yl)methoxy)quinazolin-7-yl)-7-fluorobenzo[b]thiophene-3-carbonitrile]: the IC50 in assay [1] (Homo sapiens, PSN1, 3 h) came out at 4790 nM; in assay [2] (Homo sapiens, A549, 3 h), 307 nM; in assay [3] (Homo sapiens, ASPC1, 3 h), 501 nM; in assay [4] (Homo sapiens, HCT-116, 3 h), 661 nM; in assay [5] (Homo sapiens, NCI-H727, 3 h) it was 226 nM; in assay [6] (Homo sapiens, NCI-H358, 3 h), 82 nM. For the same molecule, in assay [7] (Homo sapiens, NCI-H460, 3 h), the half-inhibitory concentration (IC50) was found to be 306 nM.
Turning to `C=C1CN2CCC[C@]2(COc2nc(N3CC4CCC(C3)N4)c3cc(Cl)c(-c4ccc(F)c5sc(N)c(C#N)c45)c(F)c3n2)C1` [Example 182, (R)-4-(4-((1R,5S)-3,8-diazabicyclo[3.2.1]octan-3-yl)-6-chloro-8-fluoro-2-(((R)-2-methylenetetrahydro-1H-pyrrolizin-7a(5H)-yl)methoxy)quinazolin-7-yl)-2-amino-7-fluorobenzo[b]thiophene-3-carbonitrile], the IC50 in assay [1] came out at 1820 nM; in assay [2], 377 nM; in assay [3] it was 4 nM; in assay [4] it was 114 nM; in assay [5], 1390 nM; in assay [6] it was 136 nM. In addition, the concentration for half-maximal inhibition (IC50) in assay [7] worked out at 207 nM.
On to `N#Cc1c(N)sc2c(F)ccc(-c3c(Cl)cc4c(N5CCC5)nc(OC[C@@]56CCCN5C[C@H](F)C6)nc4c3F)c12` [Example 206, 2-amino-4-(4-(azetidin-1-yl)-6-chloro-8-fluoro-2-(((2R,7aS)-2-fluorotetrahydro-1H-pyrrolizin-7a(5H)-yl)methoxy)quinazolin-7-yl)-7-fluorobenzo[b]thiophene-3-carbonitrile], for which the IC50 was 4890 nM in assay [1] (Homo sapiens, PSN1, 3 h); 244 nM in assay [2] (Homo sapiens, A549, 3 h); 246 nM in assay [3] (Homo sapiens, ASPC1, 3 h); 367 nM in assay [4] (Homo sapiens, HCT-116, 3 h); 55 nM in assay [5] (Homo sapiens, NCI-H727, 3 h); 60 nM in assay [6] (Homo sapiens, NCI-H358, 3 h). For the same molecule, the half-inhibitory concentration (IC50) in assay [7] (Homo sapiens, NCI-H460, 3 h) was 173 nM.
For `N#Cc1c(N)sc2c(F)ccc(-c3c(Cl)cc4c(N5CCCn6nc(N)c(Cl)c6C5)nc(OC[C@@]56CCCN5C[C@H](F)C6)nc4c3F)c12` (atropisomer, axis not shown; (aS)) [Example 189, 2-amino-4-((S)-4-(2-amino-3-chloro-7,8-dihydro-4H-pyrazolo[1,5-a][1,4]diazepin-5(6H)-yl)-6-chloro-8-fluoro-2-(((2R,7aS)-2-fluorotetrahydro-1H-pyrrolizin-7a(5H)-yl)methoxy)quinazolin-7-yl)-7-fluorobenzo[b]thiophene-3-carbonitrile], the 50% inhibitory concentration (IC50) stood at 7470 nM in assay [1]; 3350 nM in assay [2]; 472 nM in assay [3]; 2470 nM in assay [4]; 882 nM in assay [5]; 327 nM in assay [6]. Moreover, the IC50 in assay [7] turned out to be 1530 nM.
For `N#Cc1c(N)sc2c(F)ccc(-c3c(Cl)cc4c(N5CCCn6nc(N)c(Cl)c6C5)nc(OC[C@@]56CCCN5C[C@H](F)C6)nc4c3F)c12` (atropisomer, axis not shown; (aS)) [Example 188, 2-amino-4-((R)-4-(2-amino-3-chloro-7,8-dihydro-4H-pyrazolo[1,5-a][1,4]diazepin-5(6H)-yl)-6-chloro-8-fluoro-2-(((2R,7aS)-2-fluorotetrahydro-1H-pyrrolizin-7a(5H)-yl)methoxy)quinazolin-7-yl)-7-fluorobenzo[b]thiophene-3-carbonitrile], the IC50 amounted to 544 nM in assay [1]; 14 nM in assay [2]; 3 nM in assay [3]; 18 nM in assay [4]; 10 nM in assay [5]; 2 nM in assay [6]. Further, the IC50 in assay [7] turned out to be 13 nM.
For the molecule `N#Cc1c(N)sc2c(F)ccc(-c3c(Cl)cc4c(N5CCCn6nc(N)cc6C5)nc(OC[C@@]56CCCN5C[C@H](F)C6)nc4c3F)c12` [Example 187, 2-amino-4-(4-(2-amino-7,8-dihydro-4H-pyrazolo[1,5-a][1,4]diazepin-5(6H)-yl)-6-chloro-8-fluoro-2-(((2R,7aS)-2-fluorotetrahydro-1H-pyrrolizin-7a(5H)-yl)methoxy)quinazolin-7-yl)-7-fluorobenzo[b]thiophene-3-carbonitrile], the IC50 in assay [1] (Homo sapiens, PSN1, 3 h) worked out at 1060 nM; in assay [2] (Homo sapiens, A549, 3 h), 106 nM; in assay [3] (Homo sapiens, ASPC1, 3 h), 41 nM; in assay [4] (Homo sapiens, HCT-116, 3 h), 176 nM; in assay [5] (Homo sapiens, NCI-H727, 3 h) it was 148 nM; in assay [6] (Homo sapiens, NCI-H358, 3 h), 12 nM. Also, in assay [7] (Homo sapiens, NCI-H460, 3 h), the IC50 turned out to be 78 nM.

Broadly, the IC50 is the concentration at which inhibition is half-maximal.
